According to ChEMBL document CHEMBL2016525, “Discovery of a novel acetylcholinesterase inhibitor by structure-based virtual screening techniques” (Bioorg Med Chem Lett, 2012):

Key:
[1] = Lipophilicity, log D of the compound; format: physicochemical; conditions: octanol/water
Acetylcholinesterase = Acetylcholinesterase (Electrophorus electricus, UniProt O42275); assay: (§1) Inhibition of electric eel AChE by Ellman's method
[2] = biological target: Acetylcholinesterase (Electrophorus electricus) (UniProt O42275); assay: as §1
Acetylcholinesterase (Electrophorus electricus), sequence (O42275 24-633 limits assumed): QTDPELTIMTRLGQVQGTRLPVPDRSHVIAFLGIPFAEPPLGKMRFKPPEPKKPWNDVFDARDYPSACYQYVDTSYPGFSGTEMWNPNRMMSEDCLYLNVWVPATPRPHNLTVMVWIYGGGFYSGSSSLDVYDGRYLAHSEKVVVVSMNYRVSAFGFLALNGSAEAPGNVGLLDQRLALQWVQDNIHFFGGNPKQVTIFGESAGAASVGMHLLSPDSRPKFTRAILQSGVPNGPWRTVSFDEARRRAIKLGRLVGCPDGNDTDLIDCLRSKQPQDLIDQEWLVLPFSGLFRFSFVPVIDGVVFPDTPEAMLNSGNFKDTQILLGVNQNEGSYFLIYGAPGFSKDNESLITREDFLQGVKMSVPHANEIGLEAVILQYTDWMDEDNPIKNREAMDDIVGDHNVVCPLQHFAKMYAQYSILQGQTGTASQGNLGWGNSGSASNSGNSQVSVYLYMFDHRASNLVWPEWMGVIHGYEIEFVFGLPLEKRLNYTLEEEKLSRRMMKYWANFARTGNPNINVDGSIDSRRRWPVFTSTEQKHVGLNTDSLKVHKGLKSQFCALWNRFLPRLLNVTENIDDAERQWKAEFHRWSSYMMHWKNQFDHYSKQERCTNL

Acetylcholinesterase, sequence (O42275 whole entry): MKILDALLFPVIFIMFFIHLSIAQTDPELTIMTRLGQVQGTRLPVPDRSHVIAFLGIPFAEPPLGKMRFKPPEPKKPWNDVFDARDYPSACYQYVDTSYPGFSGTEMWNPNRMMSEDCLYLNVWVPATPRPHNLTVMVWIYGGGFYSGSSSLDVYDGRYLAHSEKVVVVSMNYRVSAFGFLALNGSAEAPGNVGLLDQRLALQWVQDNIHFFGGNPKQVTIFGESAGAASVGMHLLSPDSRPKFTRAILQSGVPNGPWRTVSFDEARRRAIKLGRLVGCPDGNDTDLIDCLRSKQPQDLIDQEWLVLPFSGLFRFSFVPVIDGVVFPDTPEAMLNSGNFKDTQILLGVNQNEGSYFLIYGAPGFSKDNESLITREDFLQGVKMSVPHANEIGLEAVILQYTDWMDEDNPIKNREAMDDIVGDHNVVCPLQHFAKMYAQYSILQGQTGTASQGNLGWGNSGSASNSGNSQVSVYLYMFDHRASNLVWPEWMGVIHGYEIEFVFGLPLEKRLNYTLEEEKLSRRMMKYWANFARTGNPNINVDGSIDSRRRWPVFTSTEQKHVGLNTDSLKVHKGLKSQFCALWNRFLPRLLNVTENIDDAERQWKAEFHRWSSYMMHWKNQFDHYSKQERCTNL

Row | Compound | logD [1] | IC50 (Acetylcholinesterase) [µM] | inhibition [2]
1 | COc1cc(/C=C/C(=O)NCCCCNc2c3c(nc4ccccc24)CCCC3)ccc1O | 5.33 |  | 
2 | CC(=O)Nc1ccc(-c2nnc(SCC(=O)Nc3ccc(Br)cc3Cl)n2C)cc1 | 3.61 | 10.5 | 
3 | O=C1Nc2cc(S(=O)(=O)Nc3ccc(Oc4ccccc4)cc3)cc3cccc1c23 | 3.74 | 9.9 | 
4 | COc1cc(/C=N/NC(=O)c2ccc(COc3c(F)c(F)c(F)c(F)c3F)cc2)ccc1O | 5.02 | 6.7 | 
5 | CCOc1cc(/C=N/NC(=O)c2cc(-c3cccc(OC)c3)n[nH]2)ccc1O | 3.44 | 7.8 | 
6 | COc1cc(/C=N/NC(=O)CSc2nnc(-c3ccc(OC)c(OC)c3)n2-c2ccccc2)ccc1O | 4.4 | > 100 | 
7 | Cc1cccc(OCC(=O)Nc2cccc(Oc3ccc4c(c3)C(=O)NC4=O)c2)c1C | 3.81 | 14.9 | 
8 | COc1cc(/C=N/NC(=O)c2ccc(COc3cccc(Cl)c3)o2)cc(Br)c1O | 4.86 | 9.8 | 
9 | C=CCn1c2ccccc2c2nnc(SCC(=O)Nc3ccc(S(N)(=O)=O)cc3)nc21 | 1.34 | 6.5 | Dose-dependent effect
10 | CC1CCc2c(sc3nc(SCC(=O)Nc4ccc(S(N)(=O)=O)cc4)n(N)c(=O)c23)C1 (configuration not stated) | 2.3 | 5.9 | Dose-dependent effect
11 | C=C(C)COc1cc(C)cc2oc(=O)c(CC(=O)NCc3ccc(S(N)(=O)=O)cc3)c(C)c12 | 3.4 | 12.3 | 
12 | COc1cc(/C=C/C(=O)NCCCCCNc2c3c(nc4ccccc24)CCCC3)ccc1O | 5.78 |  | 
13 | COc1ccc(NC(=O)c2ccc(NS(=O)(=O)c3cc4c5c(cccc5c3)C(=O)N4)cc2)cc1 | 2.95 | > 100 | 
14 | O=C1Nc2ccccc2/C1=N/NC(=O)c1ccc(Nc2nc(-c3ccccc3)cs2)cc1 | 4.26 | 9.5 | 
15 | C=CCn1c(SCCCC(=O)Nc2ccc(S(N)(=O)=O)cc2)nc2sc3c(c2c1=O)CCCC3 | 3.93 | 2.5 | Dose-dependent effect
16 | CCNS(=O)(=O)c1ccc(NC(=O)c2ccc(Cn3nc(C)cc3C)o2)cc1 | 2.01 | 1.5 | Dose-dependent effect
17 | CCOc1cc(C(=O)NNC(=S)Nc2ccc(S(N)(=O)=O)cc2)cc(OCC)c1OCC | 2.65 | 4.8 | Dose-dependent effect
